Paper PMC8617627, “Novel DYRK1A Inhibitor Rescues Learning and Memory Deficits in a Mouse Model of Down Syndrome” (Pharmaceuticals, 2021)
Read-outs that look alike come from different tables or passages of the source.

How the values were obtained:
Experiment in all cases: Kinase profile (33P ATP filter binding)
Assay type in all cases: biochemical
MAPKAP-K3 = MAPKAP-K3 (Homo sapiens, UniProt Q16644); settings: read-out: Remaining protein kinase activity
WNK1 = WNK1 (Homo sapiens, UniProt Q9H4A3)
PAK6 = PAK6 (Homo sapiens, UniProt Q9NQU5); settings: read-out: Remaining protein kinase activity
PAK6, sequence (Q9NQU5 whole entry): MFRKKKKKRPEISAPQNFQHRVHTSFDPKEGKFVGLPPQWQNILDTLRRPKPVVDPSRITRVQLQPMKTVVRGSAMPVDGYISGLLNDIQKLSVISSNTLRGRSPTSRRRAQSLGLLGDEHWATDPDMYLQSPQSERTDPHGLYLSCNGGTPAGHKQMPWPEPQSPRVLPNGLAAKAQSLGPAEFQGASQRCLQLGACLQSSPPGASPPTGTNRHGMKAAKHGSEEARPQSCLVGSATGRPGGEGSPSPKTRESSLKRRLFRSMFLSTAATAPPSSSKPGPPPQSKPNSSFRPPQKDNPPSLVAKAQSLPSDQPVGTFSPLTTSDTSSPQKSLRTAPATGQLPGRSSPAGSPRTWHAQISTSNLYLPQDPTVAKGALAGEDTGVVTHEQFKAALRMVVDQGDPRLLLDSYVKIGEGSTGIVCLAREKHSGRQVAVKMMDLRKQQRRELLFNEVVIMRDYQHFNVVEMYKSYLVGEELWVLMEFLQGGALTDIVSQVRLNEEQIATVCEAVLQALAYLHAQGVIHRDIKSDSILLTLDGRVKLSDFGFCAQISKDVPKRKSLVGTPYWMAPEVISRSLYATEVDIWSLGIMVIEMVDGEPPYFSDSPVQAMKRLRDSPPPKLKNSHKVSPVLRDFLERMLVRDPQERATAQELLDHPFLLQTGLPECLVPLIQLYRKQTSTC

CAMKKb = CAMKKb (Homo sapiens, UniProt Q96RR4); settings: read-out: Remaining protein kinase activity
CAMKKb, sequence (Q96RR4 whole entry): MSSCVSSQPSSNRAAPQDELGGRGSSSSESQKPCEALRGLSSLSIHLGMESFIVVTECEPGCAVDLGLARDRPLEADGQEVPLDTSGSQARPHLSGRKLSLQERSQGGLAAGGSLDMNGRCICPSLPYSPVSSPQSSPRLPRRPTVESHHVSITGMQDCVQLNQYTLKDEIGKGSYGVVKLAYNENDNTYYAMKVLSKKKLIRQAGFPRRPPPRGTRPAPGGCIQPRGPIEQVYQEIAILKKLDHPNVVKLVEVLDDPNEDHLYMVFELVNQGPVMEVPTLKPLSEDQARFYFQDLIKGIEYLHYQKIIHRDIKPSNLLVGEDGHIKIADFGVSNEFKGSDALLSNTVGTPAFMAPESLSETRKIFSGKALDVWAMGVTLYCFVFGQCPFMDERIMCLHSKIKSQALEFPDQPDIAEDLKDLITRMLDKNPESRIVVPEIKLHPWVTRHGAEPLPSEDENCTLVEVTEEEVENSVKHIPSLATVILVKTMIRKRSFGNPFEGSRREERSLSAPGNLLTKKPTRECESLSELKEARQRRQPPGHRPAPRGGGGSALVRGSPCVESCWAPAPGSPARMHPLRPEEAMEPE

PKCγ = PKCγ (Homo sapiens, UniProt P05129); settings: read-out: Remaining protein kinase activity
CHK1 = target: T1, CHK1 (Homo sapiens, UniProt O14757)
T1 sequence (O14757 1-476): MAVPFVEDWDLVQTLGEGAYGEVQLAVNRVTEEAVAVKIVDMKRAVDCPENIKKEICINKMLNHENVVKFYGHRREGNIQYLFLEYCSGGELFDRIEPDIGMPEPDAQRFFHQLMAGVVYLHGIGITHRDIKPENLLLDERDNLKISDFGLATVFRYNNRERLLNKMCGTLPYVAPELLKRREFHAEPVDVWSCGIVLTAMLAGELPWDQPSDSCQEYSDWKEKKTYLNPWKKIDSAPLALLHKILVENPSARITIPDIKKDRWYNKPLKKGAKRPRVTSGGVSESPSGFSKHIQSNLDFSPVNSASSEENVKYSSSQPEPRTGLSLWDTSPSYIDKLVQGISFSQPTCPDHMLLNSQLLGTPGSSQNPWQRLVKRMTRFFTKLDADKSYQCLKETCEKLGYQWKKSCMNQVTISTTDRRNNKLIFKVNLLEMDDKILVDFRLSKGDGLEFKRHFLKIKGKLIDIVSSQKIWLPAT

MST3 = MST3 (Homo sapiens, UniProt Q9Y6E0)
MST3, sequence (Q9Y6E0 whole entry): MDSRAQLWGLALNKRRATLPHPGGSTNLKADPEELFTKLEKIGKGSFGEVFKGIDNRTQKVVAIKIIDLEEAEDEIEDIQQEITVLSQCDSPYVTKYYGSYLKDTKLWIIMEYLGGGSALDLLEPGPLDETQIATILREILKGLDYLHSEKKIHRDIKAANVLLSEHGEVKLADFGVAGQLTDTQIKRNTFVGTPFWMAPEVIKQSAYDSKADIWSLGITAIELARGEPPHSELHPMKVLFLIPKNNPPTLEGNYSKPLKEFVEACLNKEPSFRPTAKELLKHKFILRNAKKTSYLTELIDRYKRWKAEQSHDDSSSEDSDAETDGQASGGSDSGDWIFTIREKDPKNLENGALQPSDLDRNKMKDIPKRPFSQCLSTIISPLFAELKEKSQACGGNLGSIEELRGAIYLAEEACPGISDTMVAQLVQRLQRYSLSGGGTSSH

MARK1 = MARK1 (Homo sapiens, UniProt Q9P0L2); settings: read-out: Remaining protein kinase activity
MARK1, sequence (Q9P0L2 whole entry): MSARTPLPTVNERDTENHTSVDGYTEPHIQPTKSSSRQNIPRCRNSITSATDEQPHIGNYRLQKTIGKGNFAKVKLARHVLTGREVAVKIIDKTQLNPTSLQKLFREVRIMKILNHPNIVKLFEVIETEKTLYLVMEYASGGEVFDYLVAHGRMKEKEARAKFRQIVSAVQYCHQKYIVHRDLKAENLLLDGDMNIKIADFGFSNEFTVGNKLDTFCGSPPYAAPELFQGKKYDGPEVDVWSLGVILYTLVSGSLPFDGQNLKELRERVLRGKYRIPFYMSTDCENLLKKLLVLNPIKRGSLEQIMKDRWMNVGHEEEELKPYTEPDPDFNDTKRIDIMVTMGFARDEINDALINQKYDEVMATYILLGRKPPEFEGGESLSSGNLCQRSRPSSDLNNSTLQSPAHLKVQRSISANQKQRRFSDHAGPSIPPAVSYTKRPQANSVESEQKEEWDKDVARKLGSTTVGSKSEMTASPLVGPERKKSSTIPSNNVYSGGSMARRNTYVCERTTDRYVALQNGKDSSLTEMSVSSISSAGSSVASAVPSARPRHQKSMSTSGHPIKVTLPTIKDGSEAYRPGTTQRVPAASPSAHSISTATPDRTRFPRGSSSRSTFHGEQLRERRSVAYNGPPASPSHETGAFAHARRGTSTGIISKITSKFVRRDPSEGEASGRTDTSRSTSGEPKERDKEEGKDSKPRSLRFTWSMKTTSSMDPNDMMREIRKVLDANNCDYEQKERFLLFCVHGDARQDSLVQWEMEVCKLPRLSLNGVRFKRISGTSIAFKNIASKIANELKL

JNK1 = JNK1 (Homo sapiens, UniProt P45983)
JNK1, sequence (P45983 whole entry, species assumed): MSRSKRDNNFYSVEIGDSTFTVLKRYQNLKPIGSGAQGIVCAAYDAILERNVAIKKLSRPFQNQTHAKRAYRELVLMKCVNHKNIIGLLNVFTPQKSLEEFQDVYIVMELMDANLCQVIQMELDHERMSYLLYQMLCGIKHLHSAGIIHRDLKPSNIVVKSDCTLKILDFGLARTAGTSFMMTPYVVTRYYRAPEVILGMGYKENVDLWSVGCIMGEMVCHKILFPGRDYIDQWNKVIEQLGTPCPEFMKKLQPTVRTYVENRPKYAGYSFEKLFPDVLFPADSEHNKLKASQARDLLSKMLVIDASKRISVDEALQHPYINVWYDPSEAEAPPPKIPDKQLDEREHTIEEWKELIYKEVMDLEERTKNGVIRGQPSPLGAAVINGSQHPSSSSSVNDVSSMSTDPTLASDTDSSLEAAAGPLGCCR

CDK2-Cyclin A = CDK2-Cyclin A (Homo sapiens, UniProt P24941)
NEK6 = NEK6 (Homo sapiens, UniProt Q9HC98); settings: read-out: Remaining protein kinase activity
DDR2 = target: T2, DDR2 (Homo sapiens, UniProt Q16832); settings: read-out: Remaining protein kinase activity
T2 sequence (Q16832 22-855): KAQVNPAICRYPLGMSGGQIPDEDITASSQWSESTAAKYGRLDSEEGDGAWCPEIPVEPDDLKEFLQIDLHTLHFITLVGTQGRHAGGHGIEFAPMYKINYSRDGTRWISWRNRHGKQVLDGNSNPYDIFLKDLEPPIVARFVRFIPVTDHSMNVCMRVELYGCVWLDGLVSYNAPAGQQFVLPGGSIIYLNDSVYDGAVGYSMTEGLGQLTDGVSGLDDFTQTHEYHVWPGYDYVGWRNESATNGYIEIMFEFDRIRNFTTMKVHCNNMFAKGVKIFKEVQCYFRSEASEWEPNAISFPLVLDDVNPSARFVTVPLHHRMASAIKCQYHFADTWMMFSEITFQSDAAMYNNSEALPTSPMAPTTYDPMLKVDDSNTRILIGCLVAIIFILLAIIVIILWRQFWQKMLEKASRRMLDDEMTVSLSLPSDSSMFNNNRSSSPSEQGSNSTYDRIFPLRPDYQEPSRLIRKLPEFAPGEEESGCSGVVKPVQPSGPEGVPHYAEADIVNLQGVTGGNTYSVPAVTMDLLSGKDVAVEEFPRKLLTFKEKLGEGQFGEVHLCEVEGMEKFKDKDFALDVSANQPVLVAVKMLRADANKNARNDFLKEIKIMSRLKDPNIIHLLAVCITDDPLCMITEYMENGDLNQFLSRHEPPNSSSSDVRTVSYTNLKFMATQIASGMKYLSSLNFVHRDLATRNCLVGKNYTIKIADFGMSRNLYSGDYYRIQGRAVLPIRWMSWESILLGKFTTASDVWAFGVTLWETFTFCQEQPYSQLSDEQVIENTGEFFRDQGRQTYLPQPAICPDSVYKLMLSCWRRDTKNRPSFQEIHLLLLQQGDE

MPSK1 = MPSK1 (Homo sapiens, UniProt O75716); settings: read-out: Remaining protein kinase activity
MPSK1, sequence (O75716 whole entry): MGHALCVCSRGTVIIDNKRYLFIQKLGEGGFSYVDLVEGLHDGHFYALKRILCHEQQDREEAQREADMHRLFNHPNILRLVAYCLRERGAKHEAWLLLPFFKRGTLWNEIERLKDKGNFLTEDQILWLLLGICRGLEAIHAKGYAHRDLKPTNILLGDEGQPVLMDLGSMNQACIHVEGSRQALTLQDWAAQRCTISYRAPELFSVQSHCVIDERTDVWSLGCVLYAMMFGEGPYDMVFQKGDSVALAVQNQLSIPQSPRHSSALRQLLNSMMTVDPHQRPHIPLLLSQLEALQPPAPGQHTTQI

CHK2 = CHK2 (Homo sapiens, UniProt O96017); settings: read-out: Remaining protein kinase activity
CHK2, sequence (O96017 whole entry): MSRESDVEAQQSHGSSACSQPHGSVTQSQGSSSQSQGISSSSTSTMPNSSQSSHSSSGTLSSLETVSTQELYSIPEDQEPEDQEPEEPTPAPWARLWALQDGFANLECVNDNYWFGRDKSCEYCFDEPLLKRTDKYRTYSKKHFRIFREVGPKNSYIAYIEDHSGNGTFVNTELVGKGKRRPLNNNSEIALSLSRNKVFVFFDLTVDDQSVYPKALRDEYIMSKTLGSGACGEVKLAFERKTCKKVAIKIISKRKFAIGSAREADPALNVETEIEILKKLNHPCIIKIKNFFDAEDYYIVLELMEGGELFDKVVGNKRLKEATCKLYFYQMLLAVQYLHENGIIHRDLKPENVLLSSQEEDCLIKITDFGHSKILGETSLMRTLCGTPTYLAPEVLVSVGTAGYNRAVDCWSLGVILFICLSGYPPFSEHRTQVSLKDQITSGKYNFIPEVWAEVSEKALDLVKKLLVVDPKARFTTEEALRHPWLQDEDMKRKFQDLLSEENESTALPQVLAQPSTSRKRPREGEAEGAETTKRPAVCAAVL

MAPKAP-K3, sequence (Q16644 whole entry): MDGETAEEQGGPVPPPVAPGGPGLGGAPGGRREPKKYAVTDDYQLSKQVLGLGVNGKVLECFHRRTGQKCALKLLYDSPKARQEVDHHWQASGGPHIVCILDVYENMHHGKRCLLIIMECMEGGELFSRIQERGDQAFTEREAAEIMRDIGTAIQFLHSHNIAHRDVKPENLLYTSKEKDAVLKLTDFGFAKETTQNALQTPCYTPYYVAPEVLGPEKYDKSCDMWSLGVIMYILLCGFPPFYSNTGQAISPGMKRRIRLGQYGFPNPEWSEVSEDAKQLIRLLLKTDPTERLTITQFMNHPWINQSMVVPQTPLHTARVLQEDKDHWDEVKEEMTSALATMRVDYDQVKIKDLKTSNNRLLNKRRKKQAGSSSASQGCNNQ

## COc1ccc2sc(-c3cncc(NC(C)=O)c3)nc2c1 [PST-001, N-(5-(5-Methoxybenzo[d]thiazol-2-yl)pyridin-3-yl)acetamide]
MAPKAP-K3
  remaining activity at 1 µM: 115%
  remaining activity at 100 µM: 113%
WNK1; 1 μM
  Remaining protein kinase activity: 127%
WNK1; 100 μM
  Remaining protein kinase activity: 118%
PAK6
  remaining activity at 1 µM: 112%
  remaining activity at 100 µM: 113%
CAMKKb
  remaining activity at 1 µM: 104%
  remaining activity at 100 µM: 54%
PKCγ
  remaining activity at 1 µM: 125%
  remaining activity at 100 µM: 124%
CHK1; 1 μM
  Remaining protein kinase activity: 104%
CHK1; 100 μM
  Remaining protein kinase activity: 115%
MST3; 1 μM
  Remaining protein kinase activity: 118%
MST3; 100 μM
  Remaining protein kinase activity: 113%
MARK1
  remaining activity at 1 µM: 122%
  remaining activity at 100 µM: 110%
JNK1; 1 μM
  Remaining protein kinase activity: 113%
JNK1; 100 μM
  Remaining protein kinase activity: 130%
CDK2-Cyclin A; 1 μM
  Remaining protein kinase activity: 110%
CDK2-Cyclin A; 100 μM
  Remaining protein kinase activity: 69%
NEK6
  remaining activity at 1 µM: 112%
  remaining activity at 100 µM: 113%
DDR2
  remaining activity at 1 µM: 98%
  remaining activity at 100 µM: 80%
MPSK1
  remaining activity at 1 µM: 121%
  remaining activity at 100 µM: 113%
CHK2
  remaining activity at 1 µM: 105%
  remaining activity at 100 µM: 85%

## COc1ccc2sc(-c3cncc(N)c3)nc2c1 [compound 1, 5-(5-Methoxybenzo[d]thiazol-2-yl)pyridin-3-amine]
MAPKAP-K3; MAPKAP-K3, 1 μM
  remaining activity at 1 µM: 115%
MAPKAP-K3; MAPKAP-K3, 100 μM
  remaining activity at 100 µM: 74%
WNK1; 1 μM
  Remaining protein kinase activity: 116%
WNK1; 100 μM
  Remaining protein kinase activity: 113%
PAK6; PAK6, 1 μM
  remaining activity at 1 µM: 108%
PAK6; PAK6, 100 μM
  remaining activity at 100 µM: 80%
CAMKKb; CAMKKb, 1 μM
  remaining activity at 1 µM: 107%
CAMKKb; CAMKKb, 100 μM
  remaining activity at 100 µM: 37%
PKCγ; PKCγ, 1 μM
  remaining activity at 1 µM: 115%
PKCγ; PKCγ, 100 μM
  remaining activity at 100 µM: 61%
CHK1; 1 μM
  Remaining protein kinase activity: 101%
CHK1; 100 μM
  Remaining protein kinase activity: 86%
MST3; 1 μM
  Remaining protein kinase activity: 114%
MST3; 100 μM
  Remaining protein kinase activity: 96%
MARK1; MARK1, 1 μM
  remaining activity at 1 µM: 122%
MARK1; MARK1, 100 μM
  remaining activity at 100 µM: 69%
JNK1; 1 μM
  Remaining protein kinase activity: 112%
JNK1; 100 μM
  Remaining protein kinase activity: 94%
CDK2-Cyclin A; 1 μM
  Remaining protein kinase activity: 96%
CDK2-Cyclin A; 100 μM
  Remaining protein kinase activity: 19%
NEK6; NEK6, 1 μM
  remaining activity at 1 µM: 106%
NEK6; NEK6, 100 μM
  remaining activity at 100 µM: 115%
DDR2; DDR2, 1 μM
  remaining activity at 1 µM: 107%
DDR2; DDR2, 100 μM
  remaining activity at 100 µM: 49%
MPSK1; MPSK1, 1 μM
  remaining activity at 1 µM: 110%
MPSK1; MPSK1, 100 μM
  remaining activity at 100 µM: 106%
CHK2; CHK2, 1 μM
  remaining activity at 1 µM: 114%
CHK2; CHK2, 100 μM
  remaining activity at 100 µM: 52%
